Assay [1] addresses T1, D(3) dopamine receptor (Homo sapiens, UniProt P35462). The assay is described as follows: biochemical.
The target of assay [2] is T2, D(2) dopamine receptor (Homo sapiens, UniProt P14416). In words: biochemical.
Assay [3] addresses T2, D(2) dopamine receptor.
Assay [4] addresses T2, D(2) dopamine receptor. The source holds these as a separate data set.
Assay [5] concerns the target T2, D(2) dopamine receptor. This is another data set of the same source.
In assay [6] the target is T2, D(2) dopamine receptor. The assay is described as follows: Antagonist activity at human dopamine D2 receptor expressed in HEK293 cells coexpressing renilla luciferase-fused GalphaoA/GFP10-fused Ggamma2 assessed as inhibition of quinpirole-induced GalphaoA activation by BRET assay relative to quinpirole. The format is cell-based. (In general: BRET reads energy transfer from a luciferase to a nearby fluorophore.)

Assay [7] concerns the target T2, D(2) dopamine receptor. In words: Antagonist activity at human dopamine D2 receptor expressed in HEK293 cells assessed as reduction in quinpirole-mediated cAMP inhibition preincubated for 15 mins followed by quinpirole addition measured for 1 sec by BRET assay relative to quinpirole. The format is functional, cell-based.
Assay [8] concerns the target T2, D(2) dopamine receptor. This is another data set of the same source.
Assay [9] concerns the target T2, D(2) dopamine receptor. In words: Antagonist activity at human dopamine D2 receptor expressed in forskolin stimulated-HEK293 cells coexpressing renilla luciferase-fused Galphai1/GFP10-fused Ggamma2 assessed as inhibition of quinpirole-induced Galphai1 activation by BRET assay relative to quinpirole. In kind it is cell-based.
Assay [10] deals with T2, D(2) dopamine receptor. The assay is described as follows: Antagonist activity at renilla luciferase-tagged human dopamine D2 receptor expressed in HEK293 cells coexpressing mVenus-fused beta-arrestin 2 assessed as reduction in quinpirole-mediated beta-arrestin 2 recruitment preincubated for 15 mins followed by quinpirole addition measured for 1 sec by BRET assay relative to quinpirole. The format is cell-based. Background: Recruitment of arrestin is a read-out of receptor activation apart from second messengers.

Assay [11] addresses T2, D(2) dopamine receptor. The source holds these as a separate data set.
In assay [12] the target is T2, D(2) dopamine receptor. The source holds these as a separate data set.
For assay [13], the target named is T2, D(2) dopamine receptor. The source holds these as a separate data set.
In assay [14] the target is T1, D(3) dopamine receptor.

T2 sequence (P14416 whole entry): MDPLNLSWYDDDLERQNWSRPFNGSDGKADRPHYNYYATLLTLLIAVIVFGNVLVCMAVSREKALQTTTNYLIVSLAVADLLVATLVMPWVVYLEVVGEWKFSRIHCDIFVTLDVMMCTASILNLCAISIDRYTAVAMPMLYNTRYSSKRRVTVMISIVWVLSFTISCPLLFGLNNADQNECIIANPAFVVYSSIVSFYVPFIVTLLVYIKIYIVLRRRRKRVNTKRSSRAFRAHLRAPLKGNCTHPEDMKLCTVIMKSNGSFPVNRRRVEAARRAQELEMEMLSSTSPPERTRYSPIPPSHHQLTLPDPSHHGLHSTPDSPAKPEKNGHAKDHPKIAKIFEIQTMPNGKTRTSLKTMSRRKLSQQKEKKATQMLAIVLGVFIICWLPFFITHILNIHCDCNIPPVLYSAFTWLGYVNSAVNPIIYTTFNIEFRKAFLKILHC
T1 sequence (P35462 whole entry): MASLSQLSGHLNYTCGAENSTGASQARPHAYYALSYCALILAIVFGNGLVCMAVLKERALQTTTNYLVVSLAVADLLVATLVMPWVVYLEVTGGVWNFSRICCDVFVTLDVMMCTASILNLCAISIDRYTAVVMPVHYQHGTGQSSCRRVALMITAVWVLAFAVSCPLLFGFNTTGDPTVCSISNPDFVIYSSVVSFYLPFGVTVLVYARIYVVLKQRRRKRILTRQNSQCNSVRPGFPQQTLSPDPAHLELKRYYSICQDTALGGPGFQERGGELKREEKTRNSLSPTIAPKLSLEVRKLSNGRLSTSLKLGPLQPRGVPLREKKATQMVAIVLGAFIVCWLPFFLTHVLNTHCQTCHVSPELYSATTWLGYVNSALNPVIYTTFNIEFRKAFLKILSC

A word on the Ki: it is the dissociation constant of the complex between target and ligand, obtained from inhibition or displacement. Lower therefore signals higher affinity. Regarding `CCCn1c(=O)n2c3c(cccc31)C[C@@H](N(C)CCCCNC(=O)c1cc3ccccc3[nH]1)C2`, the Ki in [1] was determined as 2.45 nM; in assay [2], 21.8 nM.
A word on the EC50: it is the concentration giving half of the maximal effect. A higher EC50 goes with lower potency in that assay. What is called IC50 is the concentration needed to halve the response being measured. Low values mean inhibition by little substance, high ones a need for much substance. For the molecule `CCCN(CCCCNC(=O)c1cc2ccccc2[nH]1)[C@@H]1Cc2cccc3c2n(c(=O)n3CCC)C1`, the EC50 in assay [3] was determined as 338 nM; in assay [4], 944 nM; in assay [5] it was 1150 nM; in assay [8], 458 nM. Moreover, the Imax is -40% in assay [6], -10 to 0% in [7], -31% in assay [9] and -28% in assay [10]. The IC50 in assay [11] was 4530 nM; in assay [12] it was 2970 nM.
For the molecule `CN[C@@H]1Cc2cccc3c2n(c(=O)n3CCCCCCCCCCCCOc2ccc3c(c2)NC(=O)CC3)C1`, the Ki in [1] is 598 nM; in assay [2] it was 284 nM. Further, the EC50 was 1460 nM in [3], 570 nM in assay [5] and 667 nM in [8]. Besides, the Imax in [6] was -71%; in assay [7] it was -10 to 0%; in assay [9], -141%; in assay [10], -13%.
With `CCCN(CCC)[C@@H]1Cc2cccc3c2n(c(=O)n3CCCCNC(=O)c2cc3ccccc3[nH]2)C1`, the values for the IC50 in assay [13], in assay [11] and in [12] were 713 nM, 2010 nM and 3650 nM, respectively. The EC50 in assay [3] came to 53.8 nM; in assay [4], 270 nM; in assay [5], 185 nM; in assay [8] it was 56.9 nM. Besides, the Imax is -27% in assay [6], -10 to 0% in assay [7], -64% in assay [9] and -41% in assay [10].
In the case of `CN[C@@H]1Cc2cccc3[nH]c(=O)n(c23)C1` [SUMANIROLE], the Ki in assay [14] was 573 nM.
As to `CCCN(CCC)[C@@H]1Cc2cccc3c2n(c(=O)n3CCC)C1`, the IC50 in assay [13] was determined as 158 nM; in [11], 98.9 nM; in [12], 931 nM. The EC50 was 1 nM in assay [3], 20.5 nM in [4], 16.8 nM in assay [5] and 0.9 nM in assay [8]. In addition, the Imax is -24% in assay [6], -45% in [9] and -23% in assay [10].
With `CN[C@@H]1Cc2cccc3c2n(c(=O)n3CCOCCOCCOCCCCc2ccccc2)C1`, the Ki in assay [1] stood at 558 nM; in assay [2], 34.7 nM. Besides, the EC50 in [3] is 279 nM; in assay [4], 139 nM; in assay [5], 678 nM; in assay [8], 88.7 nM. In addition, the Imax in assay [6] is -83%; in [7] it was -10 to 0%; in [9], -72%; in assay [10], -47%.
Regarding `CN[C@@H]1Cc2cccc3c2n(c(=O)n3CCOCCOCCCCc2ccccc2)C1`, the inhibition constant Ki in assay [1] is 227 nM; in assay [2] it was 111 nM. The EC50 in assay [3] stood at 1230 nM; in assay [4] it was 2470 nM; in assay [5], 1850 nM; in assay [8], 351 nM. Besides, the Imax in [6] is -36%; in assay [9], -87%; in [10], -13%.
As for `CN[C@@H]1Cc2cccc3c2n(c(=O)n3CCCCCCCCCCOCCCCc2ccccc2)C1`, the Ki was 113 nM in assay [1] and 23.8 nM in assay [2]. In addition, the EC50 amounted to 710 nM in assay [3] and 2530 nM in assay [4]. Besides, the Imax in assay [6] is -33%; in assay [7], -10 to 0%; in assay [9] it was -80%; in assay [10], -10 to 0%. In addition, the IC50 in assay [11] was determined as 802 nM; in assay [12] it was 4490 nM.
In the case of `CN[C@@H]1Cc2cccc3c2n(c(=O)n3CCCCCCCCCCCCOCCCCc2ccccc2)C1`, the Ki was 141 nM in assay [1] and 124 nM in assay [2].
In the same order, the values of `CN[C@@H]1Cc2cccc3c2n(c(=O)n3CCCCCCOCCCCc2ccccc2)C1` are 139 nM and 60.6 nM.
In the case of `CN[C@@H]1Cc2cccc3c2n(c(=O)n3CCOCCOCCOCCOc2ccc3c(c2)NC(=O)CC3)C1`, the Ki in assay [1] came to 640 nM; in assay [2], 306 nM. Also, the EC50 in assay [3] came to 1000 nM; in assay [4] it was 1870 nM; in [5], 3980 nM; in assay [8], 1060 nM. For the same molecule, the Imax in [6] is -18%; in [7], -10 to 0%; in assay [9], -66%; in assay [10], -67%.
In the case of `CN(CCCCOc1ccc2c(c1)NC(=O)CC2)[C@@H]1Cc2cccc3[nH]c(=O)n(c23)C1`, the values for the Ki in assay [1] and in [2] were 382 nM and 40.1 nM, respectively. Moreover, the EC50 in assay [3] is 3.1 nM; in [4] it was 74 nM; in assay [5], 189 nM; in [8], 158 nM.
In the case of `CCCN[C@@H]1Cc2cccc3c2n(c(=O)n3CCCCNC(=O)c2cc3ccccc3[nH]2)C1`, the Ki in assay [1] was 115 nM; in assay [2] it was 18.5 nM.
With `CN[C@@H]1Cc2cccc3c2n(c(=O)n3CCCCOCCCCc2ccccc2)C1`, the figures for the inhibitory constant (Ki) in [1] and in assay [2] were 377 nM and 121 nM, respectively.
Regarding `CN[C@@H]1Cc2cccc3c2n(c(=O)n3CCCCCCCCOCCCCc2ccccc2)C1`, the values for the Ki in assay [1] and in [2] were 77.7 nM and 38.7 nM, respectively. Further, the Imax in [6] was -67%; in assay [7] it was -10 to 0%; in assay [9], -59%; in assay [10], -10 to 0%.
Turning to `CCCN[C@@H]1Cc2cccc3c2n(c(=O)n3CCCCOCCCCc2ccccc2)C1`, the Ki was found to be 94.2 nM in assay [1] and 37.2 nM in assay [2]. Moreover, the EC50 in [3] stood at 25.6 nM; in assay [4], 197 nM; in assay [5], 194 nM; in assay [8], 24.6 nM.
Take `CN[C@@H]1Cc2cccc3c2n(c(=O)n3CCCCOc2ccc3c(c2)NC(=O)CC3)C1`: the Ki in assay [1] came to 1350 nM; in assay [2], 338 nM. The EC50 in assay [3] turned out to be 255 nM; in [4], 1500 nM; in [5] it was 713 nM; in assay [8] it was 105 nM. The Imax in assay [6] was -64%; in assay [7] it was -10 to 0%; in [9], -34%; in assay [10], -27%. In addition, the IC50 in assay [12] came out at 4100 nM.
Take `CCCN[C@@H]1Cc2cccc3c2n(c(=O)n3CCCCCCOCCCCc2ccccc2)C1`: the figures for the Ki in assay [1] and in assay [2] were 80.6 nM and 54.8 nM, respectively.

Source of the values: ChEMBL document CHEMBL4007493 (J Med Chem, 2017).
